Test results from ChEMBL document CHEMBL5291721, “A preclinical secondary pharmacology resource illuminates target-adverse drug reaction associations of marketed drugs” (Nat Commun, 2023).
Values belong to the molecule of their own block, whether it stands above or below them.

Tests used:
[1] = target: 5-hydroxytryptamine receptor 6 (Homo sapiens, UniProt P50406)
[2] = target: Sodium channel protein type 5 subunit alpha (Homo sapiens, UniProt Q14524); assay type: functional, cell-based
[3] = target: T1, Neuropeptide Y receptor type 2 (Homo sapiens, UniProt P49146)
T1 sequence (P49146 whole entry): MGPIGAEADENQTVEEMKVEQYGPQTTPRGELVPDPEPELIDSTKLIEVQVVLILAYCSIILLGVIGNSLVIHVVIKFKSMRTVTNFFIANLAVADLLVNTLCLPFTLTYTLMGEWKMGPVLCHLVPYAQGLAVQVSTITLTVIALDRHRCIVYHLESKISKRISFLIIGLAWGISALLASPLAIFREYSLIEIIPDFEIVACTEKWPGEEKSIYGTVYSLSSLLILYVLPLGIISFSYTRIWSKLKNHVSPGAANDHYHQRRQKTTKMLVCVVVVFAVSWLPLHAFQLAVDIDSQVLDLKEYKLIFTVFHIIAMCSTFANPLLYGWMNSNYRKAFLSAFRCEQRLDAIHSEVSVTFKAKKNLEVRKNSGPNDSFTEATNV

[4] = target: Substance-P receptor (Homo sapiens, UniProt P25103)
[5] = target: 5-hydroxytryptamine receptor 7 (Homo sapiens, UniProt P34969)
[6] = target: Cannabinoid receptor 1 (Homo sapiens, UniProt P21554); assay type: functional
[7] = target: Gamma-aminobutyric acid type B receptor subunit 1 (Homo sapiens, UniProt Q9UBS5)
[8] = target: T2, Muscarinic acetylcholine receptor M5 (Homo sapiens, UniProt P08912)
T2 sequence (P08912 whole entry): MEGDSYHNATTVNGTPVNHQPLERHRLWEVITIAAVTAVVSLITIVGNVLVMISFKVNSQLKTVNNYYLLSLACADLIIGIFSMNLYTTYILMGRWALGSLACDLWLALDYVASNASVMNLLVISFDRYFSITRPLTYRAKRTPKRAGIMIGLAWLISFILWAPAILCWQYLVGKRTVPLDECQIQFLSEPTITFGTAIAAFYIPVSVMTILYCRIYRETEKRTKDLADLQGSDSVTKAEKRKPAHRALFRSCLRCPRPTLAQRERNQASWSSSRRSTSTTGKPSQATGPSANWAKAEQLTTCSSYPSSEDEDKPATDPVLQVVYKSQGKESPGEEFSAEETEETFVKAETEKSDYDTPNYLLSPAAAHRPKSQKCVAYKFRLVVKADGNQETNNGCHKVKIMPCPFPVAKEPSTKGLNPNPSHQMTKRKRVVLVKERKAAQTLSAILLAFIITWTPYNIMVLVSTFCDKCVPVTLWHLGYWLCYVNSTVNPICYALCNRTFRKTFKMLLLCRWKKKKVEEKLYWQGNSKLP

[9] = target: T3, D(4) dopamine receptor (Homo sapiens, UniProt P21917)
T3 sequence (P21917 whole entry): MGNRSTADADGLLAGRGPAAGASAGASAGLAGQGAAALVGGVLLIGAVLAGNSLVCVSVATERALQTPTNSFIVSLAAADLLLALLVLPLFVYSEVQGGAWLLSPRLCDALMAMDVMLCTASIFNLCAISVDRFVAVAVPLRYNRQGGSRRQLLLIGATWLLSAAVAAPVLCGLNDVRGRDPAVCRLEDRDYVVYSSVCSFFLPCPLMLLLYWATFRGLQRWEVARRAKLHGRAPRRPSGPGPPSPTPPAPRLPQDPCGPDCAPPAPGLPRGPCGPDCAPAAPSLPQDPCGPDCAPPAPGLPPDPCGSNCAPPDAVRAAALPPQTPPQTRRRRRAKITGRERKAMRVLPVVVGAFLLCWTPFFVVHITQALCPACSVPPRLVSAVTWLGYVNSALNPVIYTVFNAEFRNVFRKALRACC

[10] = target: T4, Muscarinic acetylcholine receptor M1 (Homo sapiens, UniProt P11229); assay type: functional, cell-based
T4 sequence (P11229 whole entry): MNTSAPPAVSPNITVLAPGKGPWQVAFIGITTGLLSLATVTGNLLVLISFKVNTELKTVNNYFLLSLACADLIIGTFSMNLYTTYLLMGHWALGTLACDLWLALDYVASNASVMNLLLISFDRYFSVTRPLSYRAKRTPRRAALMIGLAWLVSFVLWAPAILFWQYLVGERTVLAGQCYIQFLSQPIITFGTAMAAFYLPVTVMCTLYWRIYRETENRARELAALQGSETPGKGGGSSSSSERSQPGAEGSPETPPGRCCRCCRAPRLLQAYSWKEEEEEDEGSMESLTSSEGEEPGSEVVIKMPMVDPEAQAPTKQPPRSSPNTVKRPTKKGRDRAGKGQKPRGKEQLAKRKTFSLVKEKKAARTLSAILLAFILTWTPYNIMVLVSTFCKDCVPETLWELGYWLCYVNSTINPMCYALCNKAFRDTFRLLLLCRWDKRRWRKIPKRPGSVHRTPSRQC

[11] = target: T4, Muscarinic acetylcholine receptor M1; assay type: functional, cell-based; remark: listed apart in the source
[12] = target: Gamma-aminobutyric acid receptor subunit alpha-1 (Rattus norvegicus, UniProt P62813)
[13] = target: Sodium-dependent serotonin transporter (Homo sapiens, UniProt P31645)
[14] = target: T4, Muscarinic acetylcholine receptor M1; assay type: functional, cell-based; remark: listed apart in the source
[15] = target: T4, Muscarinic acetylcholine receptor M1; assay type: functional, cell-based; remark: listed apart in the source
[16] = target: Gamma-aminobutyric acid receptor subunit alpha-1/alpha-2/beta-2/gamma-2 (Homo sapiens, UniProt P14867+P18507+P47869+P47870); assay type: protein-complex assay
Also: assay procedure not described here.

Chain of Cannabinoid receptor 1 (P21554 whole entry): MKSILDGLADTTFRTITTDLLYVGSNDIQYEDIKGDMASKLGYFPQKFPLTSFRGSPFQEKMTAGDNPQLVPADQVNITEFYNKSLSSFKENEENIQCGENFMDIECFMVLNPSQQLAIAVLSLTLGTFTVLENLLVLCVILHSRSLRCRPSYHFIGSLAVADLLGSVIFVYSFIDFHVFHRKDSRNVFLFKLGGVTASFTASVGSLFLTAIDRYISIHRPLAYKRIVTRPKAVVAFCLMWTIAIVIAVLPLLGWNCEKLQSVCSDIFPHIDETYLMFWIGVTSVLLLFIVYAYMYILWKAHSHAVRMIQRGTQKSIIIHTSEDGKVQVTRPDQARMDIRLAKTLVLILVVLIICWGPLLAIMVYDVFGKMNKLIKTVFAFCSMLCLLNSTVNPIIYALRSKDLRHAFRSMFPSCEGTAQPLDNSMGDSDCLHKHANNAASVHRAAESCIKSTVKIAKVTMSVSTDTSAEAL
Chain of 5-hydroxytryptamine receptor 6 (P50406 whole entry): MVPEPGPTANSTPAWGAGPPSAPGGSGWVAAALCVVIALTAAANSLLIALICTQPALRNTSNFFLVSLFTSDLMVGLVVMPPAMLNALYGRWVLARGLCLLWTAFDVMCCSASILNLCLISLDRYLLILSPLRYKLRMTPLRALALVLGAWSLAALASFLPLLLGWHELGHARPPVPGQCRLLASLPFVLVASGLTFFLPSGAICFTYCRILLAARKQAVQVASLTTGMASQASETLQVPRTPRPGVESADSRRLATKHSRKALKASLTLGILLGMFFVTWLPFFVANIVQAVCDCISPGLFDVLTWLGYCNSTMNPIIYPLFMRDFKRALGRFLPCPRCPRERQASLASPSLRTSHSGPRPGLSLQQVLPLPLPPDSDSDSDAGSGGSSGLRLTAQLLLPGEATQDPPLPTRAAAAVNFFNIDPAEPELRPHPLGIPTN
Chain of Substance-P receptor (P25103 whole entry): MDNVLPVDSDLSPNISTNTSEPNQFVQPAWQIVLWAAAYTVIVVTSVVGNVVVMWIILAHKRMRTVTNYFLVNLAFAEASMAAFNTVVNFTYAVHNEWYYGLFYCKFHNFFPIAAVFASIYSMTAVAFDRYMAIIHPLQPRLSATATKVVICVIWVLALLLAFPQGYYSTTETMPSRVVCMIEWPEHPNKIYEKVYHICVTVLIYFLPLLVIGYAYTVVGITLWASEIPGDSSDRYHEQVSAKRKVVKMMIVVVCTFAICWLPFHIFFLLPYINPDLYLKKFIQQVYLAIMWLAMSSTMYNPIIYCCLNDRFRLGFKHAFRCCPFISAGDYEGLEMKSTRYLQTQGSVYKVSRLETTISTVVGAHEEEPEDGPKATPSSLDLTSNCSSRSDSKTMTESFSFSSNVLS
Chain of Sodium-dependent serotonin transporter (P31645 whole entry): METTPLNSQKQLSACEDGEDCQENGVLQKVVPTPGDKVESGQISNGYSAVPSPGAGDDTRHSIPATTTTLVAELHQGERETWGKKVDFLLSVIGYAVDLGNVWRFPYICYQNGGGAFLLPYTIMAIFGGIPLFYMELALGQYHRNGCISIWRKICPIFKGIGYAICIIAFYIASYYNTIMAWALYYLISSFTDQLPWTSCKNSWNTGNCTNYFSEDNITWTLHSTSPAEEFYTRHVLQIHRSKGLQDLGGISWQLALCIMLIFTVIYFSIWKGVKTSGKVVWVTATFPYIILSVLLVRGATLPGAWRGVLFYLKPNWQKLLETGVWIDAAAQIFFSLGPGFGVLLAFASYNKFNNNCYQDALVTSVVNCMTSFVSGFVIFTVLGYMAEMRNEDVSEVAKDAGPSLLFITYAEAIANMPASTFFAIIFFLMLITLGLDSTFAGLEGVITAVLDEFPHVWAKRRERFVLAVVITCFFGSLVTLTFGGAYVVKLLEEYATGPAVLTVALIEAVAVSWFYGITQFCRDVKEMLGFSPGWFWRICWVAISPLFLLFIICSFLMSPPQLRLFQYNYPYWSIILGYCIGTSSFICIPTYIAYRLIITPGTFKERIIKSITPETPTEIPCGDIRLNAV
Chain of 5-hydroxytryptamine receptor 7 (P34969 whole entry): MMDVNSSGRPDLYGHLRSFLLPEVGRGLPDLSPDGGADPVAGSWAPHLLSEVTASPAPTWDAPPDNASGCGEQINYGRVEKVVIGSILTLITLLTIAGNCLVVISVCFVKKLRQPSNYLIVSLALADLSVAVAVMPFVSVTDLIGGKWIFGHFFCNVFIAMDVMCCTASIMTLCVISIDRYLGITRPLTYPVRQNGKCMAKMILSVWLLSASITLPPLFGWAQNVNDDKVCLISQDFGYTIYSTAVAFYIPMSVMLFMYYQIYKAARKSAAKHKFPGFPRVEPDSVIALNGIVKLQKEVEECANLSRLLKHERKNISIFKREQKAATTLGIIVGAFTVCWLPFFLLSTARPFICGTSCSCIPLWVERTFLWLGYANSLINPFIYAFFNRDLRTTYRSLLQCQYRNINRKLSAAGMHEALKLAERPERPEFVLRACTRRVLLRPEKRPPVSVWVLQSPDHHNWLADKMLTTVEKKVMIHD
Chain of Gamma-aminobutyric acid receptor subunit alpha-1 (P62813 whole entry): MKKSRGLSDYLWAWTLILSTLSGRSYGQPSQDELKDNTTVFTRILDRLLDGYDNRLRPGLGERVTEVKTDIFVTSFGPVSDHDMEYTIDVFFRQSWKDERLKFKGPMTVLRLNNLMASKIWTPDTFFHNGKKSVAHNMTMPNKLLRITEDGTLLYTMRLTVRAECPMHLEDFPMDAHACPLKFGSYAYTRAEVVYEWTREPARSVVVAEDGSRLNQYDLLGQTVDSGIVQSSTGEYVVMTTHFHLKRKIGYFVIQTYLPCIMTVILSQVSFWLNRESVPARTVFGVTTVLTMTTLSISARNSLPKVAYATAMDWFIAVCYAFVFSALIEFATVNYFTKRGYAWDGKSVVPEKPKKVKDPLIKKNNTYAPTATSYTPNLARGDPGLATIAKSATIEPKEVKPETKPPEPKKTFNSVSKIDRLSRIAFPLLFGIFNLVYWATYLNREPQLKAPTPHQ
Chain of Gamma-aminobutyric acid receptor subunit alpha-1/alpha-2/beta-2/gamma-2 (P14867 whole entry): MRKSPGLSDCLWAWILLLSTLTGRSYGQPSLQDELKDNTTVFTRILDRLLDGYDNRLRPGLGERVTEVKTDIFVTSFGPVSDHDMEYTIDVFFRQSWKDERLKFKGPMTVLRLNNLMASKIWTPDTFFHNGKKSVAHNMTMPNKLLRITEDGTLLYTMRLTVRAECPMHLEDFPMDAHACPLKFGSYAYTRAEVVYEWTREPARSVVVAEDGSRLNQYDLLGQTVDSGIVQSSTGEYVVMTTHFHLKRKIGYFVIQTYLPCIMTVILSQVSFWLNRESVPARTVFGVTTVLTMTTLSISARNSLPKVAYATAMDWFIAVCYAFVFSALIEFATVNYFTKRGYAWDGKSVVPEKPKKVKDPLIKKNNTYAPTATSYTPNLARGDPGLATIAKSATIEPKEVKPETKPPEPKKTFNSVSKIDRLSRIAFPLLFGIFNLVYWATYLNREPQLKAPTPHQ
Chain of Gamma-aminobutyric acid receptor subunit alpha-1/alpha-2/beta-2/gamma-2 (P47870 whole entry): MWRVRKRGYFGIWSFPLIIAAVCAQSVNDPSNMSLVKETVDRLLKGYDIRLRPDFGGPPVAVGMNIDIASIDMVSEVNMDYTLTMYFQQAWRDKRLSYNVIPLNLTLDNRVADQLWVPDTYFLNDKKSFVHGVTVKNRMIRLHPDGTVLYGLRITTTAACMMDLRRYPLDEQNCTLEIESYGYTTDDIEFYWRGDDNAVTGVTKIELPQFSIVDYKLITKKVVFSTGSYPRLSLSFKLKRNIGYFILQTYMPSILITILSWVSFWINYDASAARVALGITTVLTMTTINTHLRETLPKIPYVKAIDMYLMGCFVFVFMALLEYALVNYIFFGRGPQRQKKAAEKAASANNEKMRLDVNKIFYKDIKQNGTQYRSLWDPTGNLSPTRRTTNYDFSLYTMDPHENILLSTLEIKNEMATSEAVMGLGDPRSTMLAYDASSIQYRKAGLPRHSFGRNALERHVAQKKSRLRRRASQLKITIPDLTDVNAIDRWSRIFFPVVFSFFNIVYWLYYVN
Chain of Gamma-aminobutyric acid receptor subunit alpha-1/alpha-2/beta-2/gamma-2 (P18507 whole entry): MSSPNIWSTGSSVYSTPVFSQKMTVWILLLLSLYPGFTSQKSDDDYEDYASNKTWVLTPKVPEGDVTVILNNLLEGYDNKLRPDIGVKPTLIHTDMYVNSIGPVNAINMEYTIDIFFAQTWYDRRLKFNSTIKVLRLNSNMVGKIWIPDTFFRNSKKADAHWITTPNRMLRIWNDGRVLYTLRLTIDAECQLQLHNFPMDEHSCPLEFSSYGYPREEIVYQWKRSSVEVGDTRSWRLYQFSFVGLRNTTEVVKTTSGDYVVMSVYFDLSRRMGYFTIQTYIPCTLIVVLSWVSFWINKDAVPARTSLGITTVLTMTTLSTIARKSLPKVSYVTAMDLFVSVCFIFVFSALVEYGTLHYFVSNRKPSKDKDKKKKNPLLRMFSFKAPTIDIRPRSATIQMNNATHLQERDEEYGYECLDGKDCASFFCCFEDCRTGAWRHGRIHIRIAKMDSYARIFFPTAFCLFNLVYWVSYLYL
Chain of Gamma-aminobutyric acid receptor subunit alpha-1/alpha-2/beta-2/gamma-2 (P47869 whole entry): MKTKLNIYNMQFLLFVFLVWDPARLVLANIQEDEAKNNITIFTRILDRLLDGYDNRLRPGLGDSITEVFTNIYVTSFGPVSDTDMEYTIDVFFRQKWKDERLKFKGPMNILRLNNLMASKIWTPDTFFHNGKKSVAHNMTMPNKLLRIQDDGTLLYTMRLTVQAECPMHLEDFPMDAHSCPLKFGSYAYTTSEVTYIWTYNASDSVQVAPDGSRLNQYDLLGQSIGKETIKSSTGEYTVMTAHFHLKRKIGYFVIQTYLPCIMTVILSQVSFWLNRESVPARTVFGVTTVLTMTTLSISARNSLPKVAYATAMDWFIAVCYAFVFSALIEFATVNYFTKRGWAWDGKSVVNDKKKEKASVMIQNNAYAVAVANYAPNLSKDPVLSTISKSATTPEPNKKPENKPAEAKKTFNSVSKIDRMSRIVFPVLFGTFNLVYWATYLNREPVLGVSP

Compound: Cn1c(=O)cc(N2CCC[C@@H](N)C2)n(Cc2ccccc2C#N)c1=O [ALOGLIPTIN]
AC50 [1]: > 10 µM
AC50 [2]: > 150 µM
AC50 [3]: > 30 µM
AC50 [4]: > 10 µM
AC50 [5]: > 10 µM
AC50 [6]: > 10 µM
AC50 [7]: > 10 µM
AC50 [8]: > 10 µM
AC50 [9]: > 10 µM

Compound: Nc1c2ccccc2nc2ccccc12 [AMINACRINE]
AC50 [10]: 20.4 µM
AC50 [11]: > 30 µM
AC50 [12]: > 30 µM
AC50 [13]: > 30 µM

Compound: C[N@+]1(CCF)[C@@H]2CC[C@H]1C[C@@H](OC(=O)C(O)(c1ccccc1)c1ccccc1)C2
AC50 [14]: 0.5 nM
AC50 [15]: > 30 µM

More lines, now with the values ahead:

AC50 [3]: > 30 µM
Compound: CC(=O)OCC(=O)[C@@]1(O)[C@H](C)C[C@H]2[C@@H]3CCC4=CC(=O)C=C[C@]4(C)[C@@]3(F)[C@@H](O)C[C@@]21C [DEXAMETHASONE ACETATE]

AC50 [16]: > 30 µM
Compound: O=C(O)CCCCC1CCSS1 (stereo not drawn) [LIPOIC ACID, ALPHA]
